Measured values from patent US9586968B2, “Bicycloamine-substituted-N-benzenesulfonamide compounds with selective activity in voltage-gated sodium channels” (Merck Sharp & Dohme Corp., priority 2013, dated 2017).

Assays:
[1] = target: T1, human Nav1.7 (Homo sapiens, UniProt Q15858); test: PatchXpress automated patch-clamp, inactivated state block of Nav1.7; type: cell-based; conditions: channels stably expressed in HEK 293 cells, 22° C., read-out: potency for the Nav 1.7 sodium ion channel (as measured by PatchXpress)
T1 construct: expressed in transfected cells
T1 sequence (Q15858 whole entry): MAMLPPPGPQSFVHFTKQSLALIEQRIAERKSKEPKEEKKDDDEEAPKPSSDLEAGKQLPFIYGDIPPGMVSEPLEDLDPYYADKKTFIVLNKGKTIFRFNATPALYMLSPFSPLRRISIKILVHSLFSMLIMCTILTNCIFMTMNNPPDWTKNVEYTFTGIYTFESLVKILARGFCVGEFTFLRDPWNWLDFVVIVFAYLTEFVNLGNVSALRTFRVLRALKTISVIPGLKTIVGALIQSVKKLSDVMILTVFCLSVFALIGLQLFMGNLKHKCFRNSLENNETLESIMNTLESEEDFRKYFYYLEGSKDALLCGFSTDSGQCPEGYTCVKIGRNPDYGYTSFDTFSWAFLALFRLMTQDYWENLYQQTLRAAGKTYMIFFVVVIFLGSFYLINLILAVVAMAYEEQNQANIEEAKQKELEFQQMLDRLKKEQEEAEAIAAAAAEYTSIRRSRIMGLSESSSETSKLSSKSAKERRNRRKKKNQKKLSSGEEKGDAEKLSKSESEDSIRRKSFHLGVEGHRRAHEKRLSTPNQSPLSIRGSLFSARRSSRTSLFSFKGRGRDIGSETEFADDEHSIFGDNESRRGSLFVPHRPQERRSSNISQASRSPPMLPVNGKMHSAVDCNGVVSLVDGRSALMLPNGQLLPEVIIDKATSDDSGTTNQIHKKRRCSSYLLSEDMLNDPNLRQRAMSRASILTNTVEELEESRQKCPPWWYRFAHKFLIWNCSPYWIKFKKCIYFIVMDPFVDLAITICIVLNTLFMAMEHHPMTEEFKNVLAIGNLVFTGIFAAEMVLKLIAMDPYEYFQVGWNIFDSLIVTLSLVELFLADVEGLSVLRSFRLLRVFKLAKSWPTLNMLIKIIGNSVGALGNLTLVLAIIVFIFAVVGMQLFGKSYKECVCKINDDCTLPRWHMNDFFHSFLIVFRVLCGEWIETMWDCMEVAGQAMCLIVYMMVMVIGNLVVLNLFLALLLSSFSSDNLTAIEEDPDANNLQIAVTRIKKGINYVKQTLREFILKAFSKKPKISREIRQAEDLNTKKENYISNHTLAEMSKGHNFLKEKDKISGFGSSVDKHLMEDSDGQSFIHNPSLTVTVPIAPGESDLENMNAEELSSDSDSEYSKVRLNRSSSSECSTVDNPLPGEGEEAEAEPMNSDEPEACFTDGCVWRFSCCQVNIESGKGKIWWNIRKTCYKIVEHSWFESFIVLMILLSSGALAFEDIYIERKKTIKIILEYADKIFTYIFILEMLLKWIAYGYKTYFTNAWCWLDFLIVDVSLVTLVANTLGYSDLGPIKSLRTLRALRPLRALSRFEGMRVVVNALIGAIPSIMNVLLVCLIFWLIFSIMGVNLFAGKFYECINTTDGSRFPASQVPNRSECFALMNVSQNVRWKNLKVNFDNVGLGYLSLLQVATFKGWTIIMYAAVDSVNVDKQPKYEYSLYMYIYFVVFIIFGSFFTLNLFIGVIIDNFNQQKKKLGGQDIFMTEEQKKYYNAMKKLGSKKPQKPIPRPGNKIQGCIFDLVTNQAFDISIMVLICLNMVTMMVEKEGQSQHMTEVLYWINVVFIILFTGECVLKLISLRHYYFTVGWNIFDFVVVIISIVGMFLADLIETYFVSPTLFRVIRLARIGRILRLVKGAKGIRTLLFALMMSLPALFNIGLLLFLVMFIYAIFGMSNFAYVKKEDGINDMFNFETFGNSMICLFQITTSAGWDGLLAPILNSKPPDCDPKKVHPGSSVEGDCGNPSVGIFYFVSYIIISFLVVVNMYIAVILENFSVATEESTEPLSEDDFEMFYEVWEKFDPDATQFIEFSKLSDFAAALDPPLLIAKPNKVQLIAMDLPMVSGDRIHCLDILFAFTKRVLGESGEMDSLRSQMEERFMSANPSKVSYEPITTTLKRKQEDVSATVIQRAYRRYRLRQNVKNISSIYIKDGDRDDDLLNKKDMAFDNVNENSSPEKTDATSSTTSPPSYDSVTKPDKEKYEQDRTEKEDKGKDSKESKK
Method: (§1) Compounds were tested on human Nav1.7 and Nav1.5 channels stably expressed in HEK 293 cells. Activity toward Nav 1.7 and Nav 1.5 channels was assessed using the following assay methodology.
(§2) Sodium Current Measurements on the PatchXpress 7000®:
(§3) To measure inactivated state block of sodium channels, test compounds were characterized in an automated PatchXpress® assay (Molecular Devices) using a double-pulse protocol on human Nav1.7 and Nav1.5 channels stably expressed in HEK 293 cells. Cells were held at a potential 20 mV negative to V0.5 inact. An 8000 ms pre-pulse 7 mV positive to V0.5 inact was given followed by a hyperpolarizing 2 ms pulse to −120 mV and a 20 ms test pulse to −20 mV. Protocol was applied to cells in the absence, presence of compound and after washout. The temperature of PatchXpress instruments was maintained at 22° C. The following recording solutions were used. Internal solution (mM): 30 CsCl, 5 HEPES, 10 EGTA, 120 CsF, 5 NaF, 2 MgCl2. External solution (mM): 120 NMDG, 40 NaCl, 1 KCl, 0.5 MgCl2, 5 HEPES, 2.7 CaCl2.
(§4) For all electrophysiology experiments, offline analysis was used to correct for current rundown and to determine percent inhibition as a function of drug concentration. IC50 values were determined by fitting to the Hill equation.

[2] = target: T2, human Nav1.5 (Homo sapiens, UniProt Q14524); test: PatchXpress automated patch-clamp, inactivated state block of Nav1.5 (selectivity); type: cell-based; conditions: determined by PatchXpress measurement, HEK 293 cells
T2 construct: expressed in transfected cells
T2 sequence (Q14524 whole entry): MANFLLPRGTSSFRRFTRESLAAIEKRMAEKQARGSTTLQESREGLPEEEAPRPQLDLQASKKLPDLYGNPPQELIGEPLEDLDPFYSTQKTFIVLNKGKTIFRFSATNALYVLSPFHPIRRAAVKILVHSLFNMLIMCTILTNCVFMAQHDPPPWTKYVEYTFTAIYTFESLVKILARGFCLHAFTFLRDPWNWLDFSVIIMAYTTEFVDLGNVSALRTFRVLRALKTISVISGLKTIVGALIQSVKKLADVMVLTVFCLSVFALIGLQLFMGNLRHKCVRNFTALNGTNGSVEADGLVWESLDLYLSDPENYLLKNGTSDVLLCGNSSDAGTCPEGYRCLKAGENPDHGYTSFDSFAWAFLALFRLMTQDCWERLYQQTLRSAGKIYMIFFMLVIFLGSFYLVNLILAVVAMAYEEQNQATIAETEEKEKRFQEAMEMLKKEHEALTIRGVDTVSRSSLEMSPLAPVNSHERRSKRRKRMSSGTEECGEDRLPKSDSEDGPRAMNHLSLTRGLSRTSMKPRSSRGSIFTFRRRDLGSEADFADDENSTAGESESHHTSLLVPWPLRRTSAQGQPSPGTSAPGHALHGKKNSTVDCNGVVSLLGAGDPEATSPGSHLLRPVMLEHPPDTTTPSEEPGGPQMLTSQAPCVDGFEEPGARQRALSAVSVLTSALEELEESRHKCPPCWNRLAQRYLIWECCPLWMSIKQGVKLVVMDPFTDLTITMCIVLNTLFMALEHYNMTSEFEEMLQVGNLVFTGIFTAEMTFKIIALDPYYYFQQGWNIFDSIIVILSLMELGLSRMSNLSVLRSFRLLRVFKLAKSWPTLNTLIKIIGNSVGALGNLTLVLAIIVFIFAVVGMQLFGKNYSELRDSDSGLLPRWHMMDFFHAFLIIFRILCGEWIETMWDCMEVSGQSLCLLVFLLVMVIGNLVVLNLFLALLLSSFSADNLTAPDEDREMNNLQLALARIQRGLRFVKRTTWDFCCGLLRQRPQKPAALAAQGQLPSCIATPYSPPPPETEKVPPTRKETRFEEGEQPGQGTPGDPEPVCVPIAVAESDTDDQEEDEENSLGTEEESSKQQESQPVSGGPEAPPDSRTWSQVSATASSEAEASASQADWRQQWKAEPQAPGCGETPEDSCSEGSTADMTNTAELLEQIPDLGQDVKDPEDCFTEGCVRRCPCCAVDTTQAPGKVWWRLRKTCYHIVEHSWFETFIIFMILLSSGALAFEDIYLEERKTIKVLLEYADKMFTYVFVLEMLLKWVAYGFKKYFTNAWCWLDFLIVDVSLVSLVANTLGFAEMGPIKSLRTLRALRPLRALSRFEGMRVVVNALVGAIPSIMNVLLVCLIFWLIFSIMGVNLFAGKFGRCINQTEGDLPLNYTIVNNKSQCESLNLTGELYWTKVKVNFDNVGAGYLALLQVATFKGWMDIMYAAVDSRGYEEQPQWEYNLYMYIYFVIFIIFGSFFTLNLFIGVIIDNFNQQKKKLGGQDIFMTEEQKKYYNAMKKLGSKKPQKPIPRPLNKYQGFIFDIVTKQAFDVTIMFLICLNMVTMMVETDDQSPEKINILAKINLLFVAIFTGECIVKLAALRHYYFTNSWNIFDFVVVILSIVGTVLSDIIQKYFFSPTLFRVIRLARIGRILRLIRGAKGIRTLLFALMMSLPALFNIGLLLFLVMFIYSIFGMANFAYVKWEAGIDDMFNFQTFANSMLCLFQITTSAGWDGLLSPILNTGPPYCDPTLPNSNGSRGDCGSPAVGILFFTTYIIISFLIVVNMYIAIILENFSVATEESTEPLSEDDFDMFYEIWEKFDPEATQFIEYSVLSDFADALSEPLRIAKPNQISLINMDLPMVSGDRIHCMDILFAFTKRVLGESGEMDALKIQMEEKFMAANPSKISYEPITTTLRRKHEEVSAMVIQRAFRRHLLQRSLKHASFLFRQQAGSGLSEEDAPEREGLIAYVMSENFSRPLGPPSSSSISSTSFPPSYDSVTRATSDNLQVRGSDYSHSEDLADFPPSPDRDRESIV
Method: as §1, §2, §3, §4

Row | IC50 [1] | SMILES | ratio of Nav1.7 potency:Nav 1.5 potency [2]
1 | 1300 nM | O=S(=O)(Nc1ncc(Cl)s1)c1cc(Cl)c(NCC23CCCN2CC(F)(F)C3)cc1F (racemic) [Ex6-8, (R and S)-5-chloro-N-(5-chloro-1,3-thiazol-2-yl)-4-{[(2,2-difluorotetrahydro-1H-pyrrolizin-7a(5H)-yl)methyl]amino}-2-fluorobenzenesulfonamide] | 19
2 | 89 nM | O=S(=O)(Nc1ncc(F)s1)c1ccc(NCC23CCCN2CC(F)C3)c(C(F)(F)F)c1 (single isomer, unassigned) [Ex9-12-A, 4-((((2R,7aS or 2S,7aR)-2-fluoro-hexahydro-1H-pyrrolizin-7a-yl)-methyl)amino)-N-(5-fluorothiazol-2-yl)-3-(trifluoromethyl)-benzenesulfonamide] | 338
3 | 2 nM | COc1ccc(C[C@H]2CN3CCC[C@@]3(CNc3cc(F)c(S(=O)(=O)Nc4nccs4)cc3Cl)C2)cc1 (single isomer, unassigned) [Ex15-10-A] | 918
4 | 30 nM | COc1ccc(C[C@@H]2CN3CCC[C@]3(CNc3cc(F)c(S(=O)(=O)Nc4nccs4)cc3Cl)C2)cc1 (single isomer, unassigned) [Ex15-10-B] | 308
5 | 16 nM | O=S(=O)(Nc1nccs1)c1cc(Cl)c(NC[C@]23CCCN2CC2(CC2)C3)cc1F (single isomer, unassigned) [Ex13-10-B] | 406
6 | 472 nM | N#Cc1cc(S(=O)(=O)Nc2nccs2)ccc1NCC12CCCN1CC(F)(F)C2 (racemic) [Ex6-6, (R and S)-3-cyano-4-{[(2,2-difluorotetrahydro-1H-pyrrolizin-7a(5H)-yl)methyl]amino}-N-(1,3-thiazol-2-yl)benzenesulfonamide] | 64
7 | 34 nM | Cc1cc(S(=O)(=O)Nc2nccs2)c(F)cc1NCC12CCCN1CCC2 [Ex1-15, 2-fluoro-4-(((hexahydro-1H-pyrrolizin-7a-yl)methyl)amino)-5-methyl-N-(thiazol-2-yl)benzenesulfonamide] | 1149
8 | 80 nM | O=S(=O)(Nc1ncc(F)s1)c1ccc(NCC23CCCN2CC(F)C3)c(C(F)(F)F)c1 (single isomer, unassigned) [Ex9-12-B, 4-((((2S,7aR or 2R,7aS)-2-fluoro-hexahydro-1H-pyrrolizin-7a-yl)methyl)amino)-N-(5-fluorothiazol-2-yl)-3-(trifluoromethyl)-benzenesulfonamide] | 300
9 | 14 nM | CC1(C)CN2CCCC2(CNc2cc(F)c(S(=O)(=O)Nc3ncc(Cl)s3)cc2Cl)C1 (single isomer, unassigned) [Ex8-19-A, (R or S) 5-chloro-N-(5-chlorothiazol-2-yl)-4-(((2,2-dimethylhexahydro-1H-pyrrolizin-7a-yl)methyl)amino)-2-fluorobenzenesulfonamide] | 812
10 | 8 nM | COc1ccc(CC2CN3CCCC3(CNc3cc(F)c(S(=O)(=O)Nc4ncc(F)s4)cc3Cl)C2)cc1 (single isomer, unassigned) [Ex15-12-A, 5-chloro-2-fluoro-N-(5-fluorothiazol-2-yl)-4-((((2R,7aS or 2S,7aR)-2-(4-methoxybenzyl)hexahydro-1H-pyrrolizin-7a-yl)-methyl)amino)benzene-sulfonamide] | 282
11 | 40 nM | CC1CCC2(CNc3ccc(S(=O)(=O)Nc4nccs4)cc3C(F)(F)F)CCCN12 (single isomer, unassigned) [Ex11-10-B, 4-((((3R,7aR or 3S,7aS)-3-methylhexahydro-1H-pyrrolizin-7a-yl)methyl)-amino)-N-(thiazol-2-yl)-3-(trifluoromethyl)-benzenesulfonamide] | 755
12 | 62 nM | CCOC(=O)c1cnc(NS(=O)(=O)c2cc(Cl)c(NCC34CCCN3CCC4)cc2F)s1 [Ex1-16, ethyl 2-(5-chloro-2-fluoro-4-(((hexahydro-1H-pyrrolizin-7a-yl)methyl)amino)phenylsulfonamido)thiazole-5-carboxylate] | 484
13 | 320 nM | O=S(=O)(Nc1ccc(F)cn1)c1cc(Cl)c(NCC23CCCN2CCC3)cc1F [Ex3-7, 5-chloro-2-fluoro-N-(5-fluoropyridin-2-yl)-4-[(tetrahydro-1H-pyrrolizin-7a(5H)-ylmethyl)amino]benzene-sulfonamide] | 94
14 | 135 nM | CC1(C)CN2CCCC2(CNc2cc(F)c(S(=O)(=O)Nc3ncc(Cl)s3)cc2Cl)C1 (single isomer, unassigned) [Ex8-19-B, (S or R) 5-chloro-N-(5-chlorothiazol-2-yl)-4-(((2,2-dimethylhexahydro-1H-pyrrolizin-7a-yl)methyl)amino)-2-fluorobenzenesulfonamide] | 265
15 | 6 nM | C[C@@H]1CC[C@@]2(CNc3cc(F)c(S(=O)(=O)Nc4nccs4)cc3Cl)CCCN12 (single isomer, unassigned) [Ex11-8-B] | 2533
16 | 148 nM | O=S(=O)(Nc1ncc(F)s1)c1cc(Cl)c(NCC23CCCN2CC(F)C3)cc1F (single isomer, unassigned) [Ex9-10-A, 5-chloro-2-fluoro-4-((((2R,7aS or 2S,7aR)-2-fluoro-hexahydro-1H-pyrrolizin-7a-yl)-methyl)amino)-N-(5-fluorothiazol-2-yl)-benzenesulfonamide] | 137
17 | 10 nM | O=S(=O)(Nc1nccs1)c1cc(Cl)c(NC[C@]23CCCN2[C@@H](CO)CC3)cc1F (single isomer, unassigned) [Ex14-11-B] | 3045
18 | 1090 nM | CC(Nc1cc(F)c(S(=O)(=O)Nc2nccs2)cc1Cl)C12CCCN1CCC2 (single isomer, unassigned) [Ex5-9, 5-chloro-2-fluoro-4-{[(1S or R)-1-(tetrahydro-1H-pyrrolizin-7a(5H)-yl)ethyl]amino}-N-(1,3-thiazol-2-yl)benzenesulfonamide] | 26
19 | 25 nM | O=S(=O)(Nc1ncc(Cl)s1)c1cc(Cl)c(NCC23CCCN2CC2(C3)OCCO2)cc1F (single isomer, unassigned) [Ex10-9-A, (S or R)-5-chloro-N-(5-chlorothiazol-2-yl)-2-fluoro-4-(((hexahydro-spiro[[1,3]dioxolane-2,2′-pyrrolizin]-7a′-yl)-methyl)amino)-benzenesulfonamide] | 1210
20 | 168 nM | N#Cc1cc(S(=O)(=O)Nc2cccc(F)n2)ccc1NCC12CCCN1CCC2 [Ex2-3, 3-cyano-N-(6-fluoropyridin-2-yl)-4-[(tetrahydro-1H-pyrrolizin-7a(5H)-ylmethyl)amino]benzene-sulfonamide] | 18
21 | 22 nM | CC1CCC2(CNc3ccc(S(=O)(=O)Nc4ncc(F)s4)cc3Cl)CCCN12 (single isomer, unassigned) [Ex11-12-A, 3-chloro-N-(5-fluorothiazol-2-yl)-4-((((3S,7aS or 3R,7aR)-3-methylhexahydro-1H-pyrrolizin-7a-yl)methyl)amino)benzene-sulfonamide] | 1335
22 | 1000 nM | O=S(=O)(Nc1cccnn1)c1cc(Cl)c(NCC23CCCN2CCC3)cc1F [Ex3-5, 5-chloro-2-fluoro-N-(pyridazin-3-yl)-4-[(tetrahydro-1H-pyrrolizin-7a(5H)-ylmethyl)amino]benzene-sulfonamide] | 100
23 | 22 nM | O=S(=O)(Nc1ncc(F)s1)c1ccc(NCC23CCCN2CC2(CC2)C3)c(C(F)(F)F)c1 (single isomer, unassigned) [Ex13-12-A, (S or R)-N-(5-fluorothiazol-2-yl)-4-(((hexahydrospiro-[cyclopropane-1,2′-pyrrolizin]-7a′-yl)methyl)-amino)-3-(trifluoromethyl)-benzenesulfonamide] | 756
24 | 41 nM | O=S(=O)(Nc1nccs1)c1cc(Cl)c(NCC23CCCN2CCC3)cc1Br [Ex12-5, 2-bromo-5-chloro-4-(((hexahydro-1H-pyrrolizin-7a-yl)methyl)amino)-N-(thiazol-2-yl)benzenesulfonamide] | 288
25 | 35 nM | N#Cc1cc(S(=O)(=O)Nc2ncc(Cl)s2)c(F)cc1NCC12CCCN1CCC2 [Ex1-11, N-(5-chloro-1,3-thiazol-2-yl)-5-cyano-2-fluoro-4-[(tetrahydro-1H-pyrrolizin-7a(5H)-ylmethyl)amino]benzene-sulfonamide] | 469
26 | 32 nM | O=S(=O)(Nc1nccs1)c1cc(Cl)c(NC[C@@]23CCCN2CC2(C3)OCCO2)cc1F (single isomer, unassigned) [Ex10-7-B] | 935
